In ChEMBL document CHEMBL4613209, “Quinolone hybrids and their anti-cancer activities: An overview” (Eur J Med Chem, 2019):

Columns and labels:
Type in all cases: functional, cell-based
[1] = system: HL-60; test: Antiproliferative activity against human HL60 cells after 24 to 72 hrs by MTT assay
[2] = system: Hep 3B2; test: Antiproliferative activity against human Hep3B cells after 24 to 72 hrs by MTT assay
[3] = system: L1210; test: Antiproliferative activity against mouse L1210 cells after 24 to 72 hrs by MTT assay
[4] = system: SMMC-7721; test: Antiproliferative activity against human SMMC7721 cells after 24 to 72 hrs by MTT assay
[5] = system: CHO; test: Cytotoxicity against CHO cells assessed as reduction in cell viability; settings: Cricetulus griseus
[6] = system: HL-60; test: Cytotoxicity against human HL60 cells assessed as reduction in cell viability
[7] = system: L1210; test: Cytotoxicity against mouse L1210 cells assessed as reduction in cell viability

SMILES | IC50 [1] [µM] | IC50 [3] [µM] | IC50 [4] [µM] | IC50 [2] [µM] | IC50 [5] [µM] | IC50 [6] [µM] | IC50 [7] [µM]
CCn1cc(-c2nnc(SCC(=O)N/N=C/c3cccc([N+](=O)[O-])c3)o2)c(=O)c2cc(F)c(N3CCN(C)CC3)cc21 | 1.4 to 52.3 | 1.4 to 52.3 | 1.4 to 52.3 | 1.4 to 52.3 |  |  | 
CC1COc2c(N3CCN(C)CC3)c(F)cc3c(=O)c(-c4nnc(SCC(=O)N/N=C/c5ccccc5)[nH]4)cn1c23 (stereo not given) | 1.4 to 52.3 | 1.4 to 52.3 | 1.4 to 52.3 | 1.4 to 52.3 |  |  | 
O=C(N/N=C/c1ccc([N+](=O)[O-])cc1)c1cn(C2CC2)c2cc(N/N=C/c3ccc([N+](=O)[O-])cc3)c(F)cc2c1=O |  |  |  |  | 1.5 to 23.5 | 1.5 to 23.5 | 1.5 to 23.5
CCn1cc(-c2nnc(SCC(=O)N/N=C/c3ccccc3)o2)c(=O)c2cc(F)c(N3CCN(C)CC3)cc21 | 1.4 to 52.3 | 1.4 to 52.3 | 1.4 to 52.3 | 1.4 to 52.3 |  |  | 
CCn1cc(-c2nnc(SCC(=O)N/N=C/c3ccc(Cl)cc3)o2)c(=O)c2cc(F)c(N3CCN(C)CC3)cc21 | 1.4 to 52.3 | 1.4 to 52.3 | 1.4 to 52.3 | 1.4 to 52.3 |  |  | 
CC1COc2c(N3CCN(C)CC3)c(F)cc3c(=O)c(-c4nnc(SCC(=O)N/N=C/c5ccc([N+](=O)[O-])c6c5OCO6)[nH]4)cn1c23 (stereo not given) | 1.4 to 52.3 | 1.4 to 52.3 | 1.4 to 52.3 | 1.4 to 52.3 |  |  | 
CCn1cc(-c2nnc(SCC(=O)N/N=C/c3ccccc3O)o2)c(=O)c2cc(F)c(N3CCN(C)CC3)cc21 | 1.4 to 52.3 | 1.4 to 52.3 | 1.4 to 52.3 | 1.4 to 52.3 |  |  | 
CCn1cc(-c2nnc(SCC(=O)N/N=C/c3ccc(C(=O)O)cc3)o2)c(=O)c2cc(F)c(N3CCN(C)CC3)cc21 | 1.4 to 52.3 | 1.4 to 52.3 | 1.4 to 52.3 | 1.4 to 52.3 |  |  | 
CC1COc2c(N3CCN(C)CC3)c(F)cc3c(=O)c(-c4nnc(SCC(=O)N/N=C/c5ccc(C(=O)O)cc5)[nH]4)cn1c23 (stereo not given) | 1.4 to 52.3 | 1.4 to 52.3 | 1.4 to 52.3 | 1.4 to 52.3 |  |  | 
CC1COc2c(N3CCN(C)CC3)c(F)cc3c(=O)c(-c4nnc(N/N=C/c5ccccc5)[nH]4)cn1c23 (stereo not given) | 1.4 to 52.3 | 1.4 to 52.3 | 1.4 to 52.3 | 1.4 to 52.3 |  |  | 
CC1COc2c(N3CCN(C)CC3)c(F)cc3c(=O)c(-c4nnc(SCC(=O)N/N=C/c5ccc(Cl)cc5)[nH]4)cn1c23 (stereo not given) | 1.4 to 52.3 | 1.4 to 52.3 | 1.4 to 52.3 | 1.4 to 52.3 |  |  | 
CCn1cc(-c2nnc(SCC(=O)N/N=C/c3ccccc3C(=O)O)o2)c(=O)c2cc(F)c(N3CCN(C)CC3)cc21 | 1.4 to 52.3 | 1.4 to 52.3 | 1.4 to 52.3 | 1.4 to 52.3 |  |  | 

Further lines, with some results ahead:

IC50 [1] [µM] | IC50 [3] [µM] | IC50 [4] [µM] | SMILES | IC50 [2] [µM] | IC50 [5] [µM] | IC50 [6] [µM] | IC50 [7] [µM]
1.4 to 52.3 | 1.4 to 52.3 | 1.4 to 52.3 | CCn1cc(C(=O)N/N=C/c2cc(OC)c(OC)c(OC)c2)c(=O)c2cc(F)c(N3CCNCC3)cc21 | 1.4 to 52.3 |  |  | 
1.4 to 52.3 | 1.4 to 52.3 | 1.4 to 52.3 | CCn1cc(-c2nnc(SCC(=O)N/N=C/c3ccccc3OC)o2)c(=O)c2cc(F)c(N3CCN(C)CC3)cc21 | 1.4 to 52.3 |  |  | 
1.4 to 52.3 | 1.4 to 52.3 | 1.4 to 52.3 | CCn1cc(C(=O)N/N=C/c2ccc(Cl)cc2)c(=O)c2cc(F)c(N3CCNCC3)cc21 | 1.4 to 52.3 |  |  | 
1.4 to 52.3 | 1.4 to 52.3 | 1.4 to 52.3 | CCn1cc(C(=O)N/N=C/c2ccc(OC)cc2)c(=O)c2cc(F)c(N3CCNCC3)cc21 | 1.4 to 52.3 |  |  | 
1.4 to 52.3 | 1.4 to 52.3 | 1.4 to 52.3 | CCn1cc(C(=O)N/N=C/c2ccccc2OC)c(=O)c2cc(F)c(N3CCNCC3)cc21 | 1.4 to 52.3 |  |  | 
1.4 to 52.3 | 1.4 to 52.3 | 1.4 to 52.3 | CCn1cc(-c2nnc(SCC(=O)N/N=C/c3ccc(C)cc3)o2)c(=O)c2cc(F)c(N3CCN(C)CC3)cc21 | 1.4 to 52.3 |  |  | 
1.4 to 52.3 | 1.4 to 52.3 | 1.4 to 52.3 | CCn1cc(-c2nnc(SCC(=O)N/N=C/c3ccc(O)c(OC)c3)o2)c(=O)c2cc(F)c(N3CCN(C)CC3)cc21 | 1.4 to 52.3 |  |  | 
1.4 to 52.3 | 1.4 to 52.3 | 1.4 to 52.3 | CCn1cc(C(=O)N/N=C/c2ccccc2O)c(=O)c2cc(F)c(N3CCNCC3)cc21 | 1.4 to 52.3 |  |  | 
1.4 to 52.3 | 1.4 to 52.3 | 1.4 to 52.3 | CCn1cc(C(=O)N/N=C/c2ccc(F)cc2)c(=O)c2cc(F)c(N3CCNCC3)cc21 | 1.4 to 52.3 |  |  | 
1.4 to 52.3 | 1.4 to 52.3 | 1.4 to 52.3 | CCn1cc(C(=O)N/N=C/c2ccc(O)c(OC)c2)c(=O)c2cc(F)c(N3CCNCC3)cc21 | 1.4 to 52.3 |  |  | 
1.4 to 52.3 | 1.4 to 52.3 | 1.4 to 52.3 | CCn1cc(-c2nnc(SCC(=O)N/N=C/c3ccc(F)cc3)o2)c(=O)c2cc(F)c(N3CCN(C)CC3)cc21 | 1.4 to 52.3 |  |  | 
1.4 to 52.3 | 1.4 to 52.3 | 1.4 to 52.3 | CCn1cc(-c2nnc(SCC(=O)N/N=C/c3cc(OC)c(OC)c(OC)c3)o2)c(=O)c2cc(F)c(N3CCN(C)CC3)cc21 | 1.4 to 52.3 |  |  | 
